This passage reports pKa and IC50 results from ChEMBL document CHEMBL1133467, “Identification of novel inhibitors of urokinase via NMR-based screening” (J Med Chem, 2000).

The term pKa denotes the negative logarithm of the acid dissociation constant. One may read the IC50 as the concentration needed to halve the response being measured.

The nature of series [1]: Acid dissociation constant (pKa) of the compound. It counts as physicochemical.
The target of series [2] is Urokinase-type plasminogen activator (Homo sapiens, UniProt P00749). Kind of series: Inhibitory activity against Urokinase-type plasminogen activator.

In the case of `N=C(N)Nc1ccccc1` [PHENYLGUANIDINE], the pKa in series [1] worked out at 10.9. For the same compound, inhibition in series [2] was half-maximal at 20 µM (IC50).
The like results for `N=C(N)c1ccc(N)cc1` were, in that order, 11.4 and 7 µM.
Compound `Nc1nc2cc(O)ccc2[nH]1` displayed a pKa in series [1] of 7.4.
As for `Nc1nc2ccccc2[nH]1`, the pKa in series [1] came to 7.5. The same compound registered an IC50 in series [2] of 200 µM.
